One data set addresses GSK3β (Homo sapiens, UniProt P49841). Description: Inhibitory activity against GSK3β (33P-ATP phosphorylation of prephosphorylated GS1 peptide). It is filed as biochemical. To be noted: protocol 3: 7.5 μM GS1 peptide, 10 μM ATP, 50 mM Hepes pH 7.2, one hour, room temperature. The protocol: Four different protocols can be used.
In a first protocol: 7.5 μM of prephosphorylated GS1 peptide and 10 μM ATP (containing 300,000 cpm of ^33P-ATP) were incubated in 25 mM Tris-HCl, pH 7.5, 0.6 mM DTT, 6 mM MgCl2, 0.6 mM EGTA, 0.05 mg/ml BSA buffer for 1 hour at room temperature in the presence of GSK3beta (total reaction volume: 100 microliters).
In a second protocol: 4.1 μM of prephosphorylated GS1 peptide and 42 μM ATP (containing 260,000 cpm ^33P-ATP) were incubated in 80 mM Mes-NaOH, pH 6.5, 1 mM Mg acetate, 0.5 mM EGTA, 5 mM 2-mercaptoethanol, 0.02% Tween 20, 10% glycerol buffer for 2 hours at room temperature in the presence of GSK3beta.
In a third protocol: 7.5 μM of prephosphorylated GS1 peptide and 10 μM ATP (containing 300,000 cpm of ^33P-ATP) were incubated in 50 mM Hepes, pH 7.2, 1 mM DTT, 1 mM MgCl2, 1 mM EGTA, 0.01% Tween 20 buffer for one hour at room temperature in the presence of GSK3beta (total reaction volume: 100 microliters). […]
The reaction was stopped with 100 microliters of a solution made of 25 g polyphosphoric acid (85% P2O5), 126 ml 85% H3PO4, H2O to 500 ml and then diluted to 1:100 before use. […] Incorporated ^33P radioactivity was determined by liquid scintillation spectrometry. […]

Among the data in US8273758B2, “Substituted tricyclic derivatives” (Sanofi, priority 2008, dated 2012) are IC50 and melting point values, retold here.

Chain of GSK3β (P49841 whole entry): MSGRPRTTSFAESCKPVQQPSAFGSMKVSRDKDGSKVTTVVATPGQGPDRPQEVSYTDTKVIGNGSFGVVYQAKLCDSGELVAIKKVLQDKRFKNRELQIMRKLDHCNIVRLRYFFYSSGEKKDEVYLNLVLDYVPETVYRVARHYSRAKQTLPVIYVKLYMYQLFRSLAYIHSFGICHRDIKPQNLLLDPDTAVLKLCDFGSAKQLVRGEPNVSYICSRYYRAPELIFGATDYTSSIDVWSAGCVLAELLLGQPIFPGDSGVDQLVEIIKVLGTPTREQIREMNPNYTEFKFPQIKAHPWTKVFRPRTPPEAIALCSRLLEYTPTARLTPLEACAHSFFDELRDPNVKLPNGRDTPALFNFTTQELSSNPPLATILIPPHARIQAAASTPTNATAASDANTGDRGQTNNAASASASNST

Compound `O=C(CN1c2ccccc2Cn2c1nc(-c1ccncn1)cc2=O)c1ccccc1` [Compound No. 3, 9-(2-Oxo-2-phenyl-ethyl)-2-pyrimidin-4-yl-9,10-dihydro-1,4a,9-triaza-anthracen-4-one] showed a melting point of 263 to 265 °C. This compound had an IC50 against GSK3β of 6 nM.

The IC50 is the concentration needed to halve the response being measured. Usually melting point stands for the temperature of the solid-liquid transition.
